Test results: patent publication US20080026992A1, “Tyrosine Phosphorylation of Cdk Inhibitor Proteins of the Cip/Kip Family” (priority 2003, published 2008)

What was measured:
Type in all cases: cell-based, human
K562 cells [1] = assay: Cell cycle analysis by flow cytometry (BrdU/PI) of transfected K562 CML cells; settings: moderate expression, 48 hours after transfection, GFP-sorted
Experimental: FIG. 9: p27 Y88F arrests K562 CML cells in G1 phase of the cell cycle. K562 CML cells were transfected with GFP and either 25 ug of p27 or 25 ug of p27-Y88F expression vector. 48 hours after transfection, cells with similar GFP expression level were isolated by flow cytometry cell sorting and the cell cycle distribution of these cells was determined using BrdU incorporation and PI staining. The distribution of these cells in the cell cycle phases is shown. Only p27-Y88F expression leads to an accumulation of G1 phase cells and reduced cells in S-phase.
The percentage of cells in the G1, S and G2/M phases of the cell cycle was determined by two dimensional flow cytometry. The DNA content was determined by staining DNA with the intercalating dye propidium iodide and quantifying the cell fractions with differing DNA content by flow cytometry. In addition, cells in S-phase were labelled with the nucleotide analog bromo 5-bromo-2′-deoxyuridine (BrdU), which is incorporated into newly synthesized DNA. […] Cells were analyzed on FACS ([…] Dickinson) flow cytometer using the CellQuest software. […]

Lyn = assay: p27 Tyr-88 phosphorylation in 293T cells transfected with Lyn (Western blot, anti-phospho-Y88); settings: 10 μM STI-571
Experimental: (§1) HA-tagged p27 was transfected in 293T cells with a Bcr-Abl or Lyn encoding plasmids. […] Equal amounts of cell lysates were analyzed by Western blotting with monoclonal anti-phospho-Y88 antibodies and HRP-conjugated anti-p27 antibodies as indicated. b. […] Western blot analysis was performed with monoclonal anti-phospho-Y88 and HRP-conjugated anti-p27 antibodies. c. […] Cells (1×10^7/ml) were labeled with a ^35S labeled methionine/cysteine mix for 1 hour, and subsequently incubated in the absence of radioactivity for the indicated times. p27 was immunoprecipitated using anti-p27 antibodies. The labeled protein was visualized by autoradiography. The intensity of the bands was determined using a PhosphorImager and is expressed as a fraction of the time point 0. […] One representative experiment is shown.

K562 cells [2] = assay: p27 protein level in K562 cells (Western blot); settings: 2 or 10 μM STI-571 for 16 hours
Experimental: as §1
(§2) Tyr-88 phosphorylation of p27 in a Bcr-Abl transformed tumor cell line was investigated next. K562 chronic myelogenous leukaemia cells express p210 Bcr-Abl kinase that is sensitive to inhibition with ST-571.

K562 cells [3] = assay: p27 stability in K562 cells (35S pulse-chase); settings: 10 μM STI-571 for 16 hours
Experimental: as §1, §2

Compound | S-phase entry (K562 cells [1]) | effect on cell cycle / accumulation of cells in G1 phase (K562 cells [1]) | Tyr-88 phosphorylation of p27 by Lyn (Lyn) | p27 protein level (K562 cells [2]) | p27 stability (K562 cells [3])
p27-Y88F: mutant of p27 where tyrosine 88 is exchanged to phenylalanine | impaired | increasing cells accumulating in G1 phase |  |  | 
Cc1ccc(NC(=O)c2ccc(CN3CCN(C)CC3)cc2)cc1Nc1nccc(-c2cccnc2)n1 [STI-571, 4-[(4-Methyl-1-piperazinyl)methyl]-N-[4-methyl-3-[[4-(3-pyridinyl)-2-pyrimidinyl]amino]-phenyl] benzamide methane sulfonate] |  |  | no effect | dramatic increase | increase
